“And” between values parts separate entries of the source, which are not always exact repeats. Identical values can stand only once. Like-named read-outs stand apart in the source and are kept apart here.

The target in one series is T1, human AT1R (Homo sapiens, UniProt P30556).
T1 construct: purchased Perkin Elmer (Waltham, MA, USA); host or cells: CHO-K1 cells (recombinant membrane preparation)
T1 sequence (P30556 1-359): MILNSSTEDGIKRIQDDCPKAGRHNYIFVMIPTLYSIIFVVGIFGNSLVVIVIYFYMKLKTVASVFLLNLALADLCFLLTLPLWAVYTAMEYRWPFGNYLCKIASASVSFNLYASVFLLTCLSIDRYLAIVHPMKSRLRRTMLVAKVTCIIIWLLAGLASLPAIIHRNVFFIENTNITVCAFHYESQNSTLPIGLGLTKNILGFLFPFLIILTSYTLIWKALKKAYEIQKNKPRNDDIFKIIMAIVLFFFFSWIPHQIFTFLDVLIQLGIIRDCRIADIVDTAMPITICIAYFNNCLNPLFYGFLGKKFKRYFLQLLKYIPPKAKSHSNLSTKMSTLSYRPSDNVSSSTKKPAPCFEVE
Description: Competition binding assay in membranes containing human AT1R, [125I]-(Sar1,Ile8)-Angiotensin II as radioligand. Particulars: human AT1R membranes from CHO-K1 cells, displacement of [125I]-(Sar1,Ile8)-Angiotensin II, n = 3.

Details of series [1]: method as in earlier work. Particulars: cited from earlier work.
For series [2], the system named is renal AT1R. Description: Dynamic µPET scan of healthy NSG mice. The series is classed as in vivo, NOD.Cg-Prkdc^scidIl2rg^tm1Wjl/SzJ mice. Particulars: early time points (10, 15 and 20 min), losartan 18 mg/kg. As to the method: (§1) The in vivo AT1R binding specificity of [^18F]AMBF3Los was evaluated in healthy mice by a dynamic PET scan. Healthy NSG mice were injected in the tail vein with 6 ± 1 MBq (170 ± 38 μCi) of [^18F]AMBF3Los and a sixty-minute dynamic PET scans was carried out on a μPET/CT scanner (Inveon, Siemens) following procedures reported previously. Alternatively, [^18F]AMBF3Los was concomitantly injected with the AT1R blocker losartan (18 mg/kg) before the dynamic acquisition. Before and during the acquisition, mice were sedated with a continuous flow of isoflurane anesthesia (2% isoflurane in oxygen). The µPET/CT images were analyzed with PMOD v3.3 software (PMOD Technologies, Zürich, Switzerland). An elliptical volume-of-interest that enclosed the entire kidney was positioned manually on the PET images for the determination of the kidney volume. Then, 3-dimensional isocontours were drawn automatically. For each VOI, the percentage of the injected dose in the region of interest, divided by the injected dose per animal weight (% ID/g) could be calculated directly using the output parameters from the μPET.

For series [3], the system named is renal AT1R. Description: Autoradiography of mouse kidneys after 60-min dynamic µPET scan. It counts as in vivo, NOD.Cg-Prkdc^scidIl2rg^tm1Wjl/SzJ mice. As to conditions: autoradiography after 60-min dynamic µPET scan, co-injection of losartan potassium. An excerpt:
Kidneys harvested from healthy NSG mice (after the biodistribution studies), were rinsed in PBS and frozen in isopentane/dry-ice bath. Ten μm-thick slides of the kidneys were obtained using a cryostat (Leica, Wetzlar, Germany), and thaw-mounted onto Superfrost Plus microscope slides (Fischerbrand from Thermo Fisher Scientific, Toronto, ON, Canada), following general procedures of the lab. Afterwards, kidney slides were exposed to a phosphor screen overnight and imaged on a Typhoon FLA 9500 scanner (GE Healthcare, Chicago, IL, USA).

The nature of series [4]: Log D7.4 measurement (octanol/PBS, gamma counting). The series is classed as physicochemical. As to conditions: pH 7.4, n = 3. As to the method:
The log D7.4 values were determined according to the literature. Aliquots (2 μL) of [^18F]FEtLos and [^18F]AMBF3Los were added to polypropylene tubes containing 3 mL of octanol and 3 mL of PBS (phosphate-buffered saline). The samples were vortexed for 20 s (2 times) and centrifuged at 600× g for 15 min. Aliquots (0.1 mL) of each layer were counted in a gamma counter to determine the log D7.4 as log (counts in octanol layer/counts in PBS layer).

The test system of a further series is CHO-AT1R cells. The series is described as follows: Cell binding (uptake) assay in CHO-AT1R and CHO cells. It counts as cell-based, Chinese hamster. Particulars: 60 min at 4 °C; for AT1R-specific binding to CHO-AT1R cells (blocking with losartan potassium): losartan potassium 100 µM/well. The procedure: The cell binding assays were performed based on previous reports with modifications. […] To saturate the AT1R, the cells of the blocking group were treated with losartan 30 min before adding the radiolabelled compound. At the end of the incubation period, the supernatant was aspirated and cells were washed six times with ice-cold PBS, and further removed with cell scraper and transferred to a gamma counter tube. The cellular activity was counted in a Cobra II gamma counter (Packard). […]
(§2) Supplemental material and methods
1. Binding assays in cells with [18F]FEtLos
CHO-AT1R and CHO cells ([…]) were plated in a 6-well plate overnight and then incubated for one hour at 4 °C with 10 µCi (370 kBq) of [18F]FEtLos per well, in presence or absence […]
(§3) At the end of the incubation period, the supernatant was aspirated and cells were washed six times with ice-cold PBS, and further removed with cell scraper and transferred to a gamma counter tube. The activity in the cells was counted in a Cobra II gamma counter (Packard). […]

Series [5] is described as follows: Biodistribution at 60 min p.i. in healthy NSG mice. It counts as in vivo, NOD.Cg-Prkdc^scidIl2rg^tm1Wjl/SzJ mice. As to conditions: n = 3. As to the method: Experiments involving animals were approved by the Animal Ethics Committee of the University of British Columbia (Protocol number: A16-0128). Immunodeficient NOD.Cg-Prkdc^scidII2rg^tm1Wjl/SzJ (NSG) mice were obtained from an in-house breeding colony at the Animal Resource Centre at BC Cancer Research Facility. Mice were always divided into baseline and AT1R blocked groups to assess the AT1R binding specificity of [^18F]AMBF3Los with the co-injection of the AT1R blocker losartan (18 mg/kg, dissolved in PBS).
as §1
After the sixty-minute dynamic PET scans, anesthetized mice were euthanized by carbon dioxide asphyxiation and blood, fat, testis, intestines, stomach, spleen, liver, pancreas, adrenal glands, kidneys, lungs, heart, muscle, bone and brain were harvested, rinsed in PBS, weighted and counted in a Perkin Elmer (Waltham, MA, USA) Wizard2 2480 automatic gamma counter to quantify the percent of injected dose per gram of tissue (% ID/g).

The test system of series [6] is renal AT1R. The series is described as follows: Ex vivo µPET/CT imaging of mouse kidneys 10 min p.i. Particulars: losartan 70 mg/kg. The series is classed as in vivo, Balb/c Nude mice. The procedure:
The renal AT1R binding specificity of [^18F]FEtLos was also evaluated by an ex vivo µPET/CT imaging of Balb/c Nude mice kidneys 10 min post injection (p.i.) of the tracer. […] These positive results of the ex vivo renal AT1R binding of [^18F]FEtLos might be possible due to the high AT1R density in the kidneys, that allows visualizing specific uptake in spite of the low AT1R binding affinity of [^18F]FEtLos.
Figure S12. Calibration curve for determining the molar activity of [18F]FEtLos. The curve represent the correlation between the area under the curve (AUC), recorded from the analytical HPLC profile at 254 nm, and the amount (nmol) of the product injected onto analytical HPLC.
as §2
1. Binding assays in cells with [18F]FEtLos […]
as §3
The AT1R binding specificity of [18F]FEtLos was evaluated by ex vivo µPET/CT imaging of healthy Balb/c Nude mice kidneys after ten minutes of intravenous injection of [18F]FEtLos with […]
(AT1R blocked). […] The ex vivo µPET/CT imaging was recorded using a FOV (field of view) of 60 mm and 15 min for PET scan, and 35 kV and 400 µA for CT scan.

Another series has as its target rat kidney AT1R. Also on record: method as in PMID 27199365. Particulars: read-out: dissociation constant, KD; cited from earlier work.
Details of series [7]: method as in PMID 27199365. As to conditions: in vivo, 60 min; cited from earlier work.
[8] abbreviates: AT1R Blocking (co-injection of losartan 18 mg/kg).

Description for human AT1R: The assays were performed using membranes expressing the human angiotensin II type 1 receptor from CHO-K1 cells, purchased from Perkin Elmer (Waltham, MA, USA). […] The hot ligand [^125I]-(Sar1,Ile8)-Angiotensin II (81.4 TBq/mmol) was also purchased from Perkin Elmer (USA). The Multiscreen MSFCN6B50 96-well plates were used for this assay. The procedure was based on the recommended assay conditions from Perkin Elmer (Waltham, MA, USA) and procedures previously described for other AT1R ligands [22, 23]. Briefly, the 96-well plate was preincubated for 1–2 h at 4 °C with 200 μL of 0.5% BSA (Bovine Serum Albumin) followed by washing (3 times) with an assay buffer. Next, 150 µL of the membranes, diluted (1:150) in the buffer assay (50 mM Tris-HCl pH 7.4, 5 mM MgCl2) to a final concentration of 0.6 μg/well, were added to the wells followed by the addition of cold (25 µL) and hot ligand (25 µL). The plate was incubated for 60 min at 27 °C under stirring and at the end of the experiment all wells were washed (9 times) with ice-cold wash buffer (50 mM Tris-HCl pH 7.4) using vacuum. Afterwards, membranes were punched out and counted in a Perkin Elmer (Waltham, MA, USA) Wizard2 2480 automatic gamma counter. The Ki values were calculated by a non-linear curve fitting using GraphPad Prism 7.01 Software (San Diego, CA, USA). The experiment was done in triplicate.

Regarding `CCCCc1nc(Cl)c(Cn2cc(C[N+](C)(C)C[B-](F)(F)F)nn2)n1Cc1ccc(-c2ccccc2-c2nnn[nH]2)cc1` [AMBF3Los, 2-butyl-4-chloro-5-[((1H-1,2,3-triazol-4-yl)-(N,N-dimethyl-ammoniomethyl-trifluoroborate)methyl)methyl]-1-[(2′-(1H-tetrazol-5-yl)biphenyl-4-yl)methyl]-1H-imidazole], at human AT1R, affinity was put at a Ki of 7.9 nM.

On to `CCCCc1nc(Cl)c(COCCF)n1Cc1ccc(-c2ccccc2-c2nnn[nH]2)cc1` [FEtLos, 2-butyl-4-chloro-5-(2-fluoroethoxy)methyl-1-[(2′-(1H-tetrazol-5-yl)biphenyl-4-yl)methyl]-1H-imidazole], for which the affinity at human AT1R, expressed as Ki, was 2200 ± 200 nM.

In the case of `CCCCc1nc(Cl)c(CO)n1Cc1ccc(-c2ccccc2-c2nn[nH]n2)cc1` [Losartan potassium, 2-butyl-4-chloro-5-hydroxymethyl-1-[(2′-(1H-tetrazol-5-yl)biphenyl-4-yl)methyl]-1H-imidazole], in series [1], the “log D7.4” value is on record as 1.7.

As to `CCCCc1nc(Cl)c(Cn2cc(C[N+](C)(C)C[B-](F)(F)[18F])nn2)n1Cc1ccc(-c2ccccc2-c2nnn[nH]2)cc1` [[^18F]AMBF3Los, [^18F]ammoniomethyltrifluoroborate-losartan], in the series with renal AT1R [2], the “renal cortex uptake in dynamic µPET with co-injected losartan potassium versus baseline” value is on record as “reduced”. Also, the “renal cortex activity, times smaller in mouse blocked with losartan potassium versus unblocked” value in the series on renal AT1R [3] is “approximately 5 times”. For the same compound, the “log D7.4” value in series [4] was −0.43 ± 0.02 and −0.4. Moreover, in the series on CHO-AT1R cells (10 µCi per well), the “in vitro cellular uptake in CHO-AT1R cells compared to CHO cells” value is on record as “higher uptake”. Besides, in the series with CHO-AT1R cells, the “AT1R-specific binding to CHO-AT1R cells (blocking with losartan potassium)” value is listed as “receptor-specific”. Also, in [5] (setting [8]), the “Uptake, Adrenal glands” value worked out at 0.11 ± 0.06 % ID/g; the “Uptake, Blood” value is given as 0.08 ± 0.08 % ID/g; the “Uptake, Bone” value is reported as 0.11 ± 0.03 % ID/g; the “Uptake, Brain” value turned out to be 0.005 ± 0.004 % ID/g. Besides, in series [5] (setting [8]), the “Uptake, Fat” value stood at 0.008 ± 0.002 % ID/g; the “Uptake, Heart” value is recorded as 0.04 ± 0.03 % ID/g; the “Uptake, Intestines” value came out at 62 ± 3 % ID/g; the “Uptake, Kidneys” value is recorded as 1.9 ± 1.3 % ID/g. Also, in series [5] (setting [8]), the “Uptake, Liver” value is listed as 0.6 ± 0.3 % ID/g; the “Uptake, Lungs” value is listed as 0.08 ± 0.04 % ID/g; the “Uptake, Muscle” value came out at 0.05 ± 0.04 % ID/g; the “Uptake, Pancreas” value is reported as 0.07 ± 0.06 % ID/g. In series [5] (setting [8]), the “Uptake, Spleen” value came out at 0.08 ± 0.03 % ID/g; the “Uptake, Stomach” value came to 2 ± 2 % ID/g; the “Uptake, Testis” value is 0.029 ± 0.008 % ID/g. For the same compound, in [5] (Baseline), the “Uptake, Adrenal glands” value turned out to be 0.1 ± 0.1 % ID/g; the “Uptake, Blood” value was 0.05 ± 0.03 % ID/g; the “Uptake, Bone” value was determined as 0.11 ± 0.06 % ID/g; the “Uptake, Brain” value was found to be 0.006 ± 0.005 % ID/g. In addition, in [5] (Baseline), the “Uptake, Fat” value is 0.011 ± 0.004 % ID/g; the “Uptake, Heart” value is on record as 0.03 ± 0.01 % ID/g; the “Uptake, Intestines” value was 63 ± 9 % ID/g; the “Uptake, Kidneys” value was 3.5 ± 1.2 % ID/g. Besides, in series [5] (Baseline), the “Uptake, Liver” value is 0.5 ± 0.5 % ID/g; the “Uptake, Lungs” value is on record as 0.06 ± 0.03 % ID/g; the “Uptake, Muscle” value is 0.02 ± 0.01 % ID/g; the “Uptake, Pancreas” value worked out at 0.05 ± 0.03 % ID/g. Moreover, in [5] (Baseline), the “Uptake, Spleen” value was 0.2 ± 0.1 % ID/g; the “Uptake, Stomach” value was 0.06 ± 0.05 % ID/g; the “Uptake, Testis” value is reported as 0.03 ± 0.01 % ID/g.

Turning to `CCCCc1nc(Cl)c(COCC[18F])n1Cc1ccc(-c2ccccc2-c2nnn[nH]2)cc1` [[^18F]FEtLos, [^18F]fluoroethyl-losartan], the “kidney uptake in ex vivo µPET/CT, baseline versus co-injected losartan potassium” value in the series on renal AT1R [6] is “high uptake in the kidneys (baseline), which was blocked”. The compound further showed a pH-dependent lipophilicity (logD) in series [4] (pH 7.4, octanol/PBS) of 0.21 ± 0.09. Moreover, the “AT1R-specific binding to CHO-AT1R cells (blocking with losartan potassium)” value with CHO-AT1R cells is on record as “did not show any specific AT1R binding”; in the series on CHO-AT1R cells (listed as [18F]FEtLos), “non-significant blocking effect”.

Turning to `CCCCc1nc(Cl)c(Cn2cc(CCCOc3cccnc3[18F])nn2)n1Cc1ccc(-c2ccccc2-c2nnn[nH]2)cc1` [[^18F]FPyKYNE-losartan], the Kd on rat kidney AT1R was 49.4 nM. Moreover, the liver uptake in [7] was 66.7 % ID/g.

Source of the values: publication PMC7221519, “Synthesis and Evaluation of [^18F]FEtLos and [^18F]AMBF3Los as Novel ^18F-Labelled Losartan Derivatives for Molecular Imaging of Angiotensin II Type 1 Receptors” (Molecules, 2020).
